Laboratory results as given in patent US12492188B2, “1H-benzo[D]imidazole derivatives as TLR9 inhibitors for the treatment of fibrosis” (BRISTOL-MYERS SQUIBB COMPANY, priority 2020, dated 2025).
Where two headings read alike, the source gives them in different places.

How the values were obtained:
Format in all cases: cell-based
human TLR8 = target: T1, human TLR8 (Homo sapiens, UniProt Q9NR97); assay: TLR8 inhibition reporter assay (HEK-Blue cells, secreted embryonic alkaline phosphatase reporter); conditions: HEK-Blue cells overexpressing human TLR8, stimulated with R848 15.9 μM; read-out: TLR 8 IC50
T1 construct: host or cells: HEK-Blue cells (HEK293-derived reporter line)
T1 sequence (Q9NR97 27-1041): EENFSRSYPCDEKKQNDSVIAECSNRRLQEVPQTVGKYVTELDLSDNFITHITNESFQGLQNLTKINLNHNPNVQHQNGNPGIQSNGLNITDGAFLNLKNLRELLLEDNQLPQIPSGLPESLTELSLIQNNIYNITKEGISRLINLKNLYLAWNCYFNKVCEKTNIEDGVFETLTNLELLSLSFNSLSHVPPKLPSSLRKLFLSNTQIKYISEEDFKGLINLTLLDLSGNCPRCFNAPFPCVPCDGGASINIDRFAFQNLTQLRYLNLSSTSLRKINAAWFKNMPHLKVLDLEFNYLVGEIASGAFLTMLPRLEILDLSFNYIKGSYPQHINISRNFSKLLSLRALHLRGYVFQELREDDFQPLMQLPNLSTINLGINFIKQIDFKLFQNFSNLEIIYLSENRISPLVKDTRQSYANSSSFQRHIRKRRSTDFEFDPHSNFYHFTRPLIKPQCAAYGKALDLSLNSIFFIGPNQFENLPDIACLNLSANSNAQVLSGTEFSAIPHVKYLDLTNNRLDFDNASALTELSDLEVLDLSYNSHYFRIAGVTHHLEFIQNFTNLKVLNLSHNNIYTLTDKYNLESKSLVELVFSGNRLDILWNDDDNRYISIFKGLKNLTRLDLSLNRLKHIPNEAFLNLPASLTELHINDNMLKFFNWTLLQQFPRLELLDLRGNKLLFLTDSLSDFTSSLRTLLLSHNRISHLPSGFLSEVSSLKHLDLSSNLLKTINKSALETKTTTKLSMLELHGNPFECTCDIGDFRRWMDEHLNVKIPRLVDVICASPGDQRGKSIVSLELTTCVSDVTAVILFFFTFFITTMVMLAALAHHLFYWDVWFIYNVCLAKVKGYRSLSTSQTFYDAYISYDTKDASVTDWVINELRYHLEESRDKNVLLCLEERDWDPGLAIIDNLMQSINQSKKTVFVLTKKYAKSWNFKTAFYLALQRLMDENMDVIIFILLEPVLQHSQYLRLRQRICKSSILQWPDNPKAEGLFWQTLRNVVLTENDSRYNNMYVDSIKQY
How it was run: (§1)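 HEK-Blue cells overexpressing the respective receptor, with an NF-κB/AP-1-driven SEAP reporter, were pre-treated with compound (0.05 nM–50 μM) for 30 min at room temperature. Stimulation used gardiquimod 7.5 μM (TLR7), R848 15.9 μM (TLR8) or ODN2006 5 nM (TLR9); SEAP was read after 22 h at 37 °C as percent inhibition.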

human TLR9 = target: T2, human TLR9 (Homo sapiens, UniProt Q9NR96); assay: TLR9 inhibition reporter assay (HEK-Blue cells, secreted embryonic alkaline phosphatase reporter)
T2 construct: host or cells: HEK-Blue cells (HEK293-derived reporter line)
T2 sequence (Q9NR96 26-1032): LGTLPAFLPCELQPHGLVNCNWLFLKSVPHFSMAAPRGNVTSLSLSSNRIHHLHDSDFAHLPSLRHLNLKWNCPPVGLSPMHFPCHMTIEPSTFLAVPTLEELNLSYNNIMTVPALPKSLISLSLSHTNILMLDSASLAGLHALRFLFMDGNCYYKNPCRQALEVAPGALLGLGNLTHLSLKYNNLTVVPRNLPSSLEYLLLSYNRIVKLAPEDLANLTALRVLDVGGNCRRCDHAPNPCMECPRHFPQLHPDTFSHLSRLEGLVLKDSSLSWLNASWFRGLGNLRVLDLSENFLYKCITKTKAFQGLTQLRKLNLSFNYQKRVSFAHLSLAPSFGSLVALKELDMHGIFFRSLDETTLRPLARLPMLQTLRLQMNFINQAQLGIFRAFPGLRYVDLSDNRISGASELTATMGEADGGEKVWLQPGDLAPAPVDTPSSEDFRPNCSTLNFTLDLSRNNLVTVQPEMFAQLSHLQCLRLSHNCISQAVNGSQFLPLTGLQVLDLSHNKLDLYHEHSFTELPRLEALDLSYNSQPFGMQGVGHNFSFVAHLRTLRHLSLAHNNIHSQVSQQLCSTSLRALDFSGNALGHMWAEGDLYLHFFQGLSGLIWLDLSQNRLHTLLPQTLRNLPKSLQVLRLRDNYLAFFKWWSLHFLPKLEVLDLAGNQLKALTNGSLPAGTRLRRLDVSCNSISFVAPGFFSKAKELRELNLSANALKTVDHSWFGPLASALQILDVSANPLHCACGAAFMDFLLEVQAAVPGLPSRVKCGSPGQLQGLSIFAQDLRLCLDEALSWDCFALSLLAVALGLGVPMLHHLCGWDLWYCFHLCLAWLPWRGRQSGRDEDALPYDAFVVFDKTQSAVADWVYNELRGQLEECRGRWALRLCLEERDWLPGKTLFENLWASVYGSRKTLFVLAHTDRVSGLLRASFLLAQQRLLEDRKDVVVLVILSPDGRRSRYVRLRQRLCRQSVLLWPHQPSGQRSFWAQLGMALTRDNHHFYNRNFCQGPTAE
How it was run: as §1

human TLR7 = target: T3, human TLR7 (Homo sapiens, UniProt Q9NYK1); assay: TLR7 inhibition reporter assay (HEK-Blue cells, secreted embryonic alkaline phosphatase reporter); conditions: HEK-Blue cells overexpressing human TLR7, stimulated with gardiquimod 7.5 μM; read-out: TLR 7 IC50
T3 construct: host or cells: HEK-Blue cells (HEK293-derived reporter line)
T3 sequence (Q9NYK1 27-1049): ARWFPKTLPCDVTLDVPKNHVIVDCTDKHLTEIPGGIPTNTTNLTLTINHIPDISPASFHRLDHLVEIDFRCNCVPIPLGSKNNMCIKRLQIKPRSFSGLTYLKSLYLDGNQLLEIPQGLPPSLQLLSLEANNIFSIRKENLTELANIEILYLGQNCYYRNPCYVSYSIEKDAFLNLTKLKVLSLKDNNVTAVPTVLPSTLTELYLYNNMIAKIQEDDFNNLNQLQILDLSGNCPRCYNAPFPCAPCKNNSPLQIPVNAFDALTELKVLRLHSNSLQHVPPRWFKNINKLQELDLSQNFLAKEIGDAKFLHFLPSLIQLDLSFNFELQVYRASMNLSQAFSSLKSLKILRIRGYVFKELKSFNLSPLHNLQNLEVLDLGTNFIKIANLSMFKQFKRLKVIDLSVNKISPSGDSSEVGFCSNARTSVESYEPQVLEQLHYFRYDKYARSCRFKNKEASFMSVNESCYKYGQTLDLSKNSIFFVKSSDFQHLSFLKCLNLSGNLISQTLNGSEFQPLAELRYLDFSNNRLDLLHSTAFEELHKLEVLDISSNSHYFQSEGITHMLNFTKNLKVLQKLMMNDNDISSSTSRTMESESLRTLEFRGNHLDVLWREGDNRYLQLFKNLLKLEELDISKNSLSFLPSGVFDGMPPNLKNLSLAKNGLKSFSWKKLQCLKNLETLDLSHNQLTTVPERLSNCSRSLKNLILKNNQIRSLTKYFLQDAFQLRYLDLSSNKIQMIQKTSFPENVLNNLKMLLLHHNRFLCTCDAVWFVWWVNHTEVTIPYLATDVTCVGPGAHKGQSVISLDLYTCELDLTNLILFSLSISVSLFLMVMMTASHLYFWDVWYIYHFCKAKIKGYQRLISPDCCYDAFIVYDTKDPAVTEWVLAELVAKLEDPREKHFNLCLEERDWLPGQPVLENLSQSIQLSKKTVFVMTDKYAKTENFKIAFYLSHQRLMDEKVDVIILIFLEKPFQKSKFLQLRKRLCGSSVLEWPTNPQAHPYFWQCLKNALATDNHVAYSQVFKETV
How it was run: as §1

[1] = HEK-Blue cells overexpressing human TLR9, stimulated with ODN2006 5 nM, read-out: TLR 9 IC50

`Cn1c(-c2ccc(S(C)(=O)=O)cc2)nc2cc(C3CCN(C4CC5CCC(C4)N5CC4CC4)CC3)cc(F)c21` (stereo not drawn) [Example 218, 5-(1-(8-(cyclopropylmethyl)-8-azabicyclo[3.2.1]octan-3-yl)piperidin-4-yl)-7-fluoro-1-methyl-2-(4-(methylsulfonyl)phenyl)-1H-benzo[d]imidazole] showed an IC50 (human TLR8) of 48700 nM, an IC50 (human TLR9) of 140 nM and an IC50 (human TLR9; [1]) of 140 nM. The IC50 (human TLR7) was 5600 nM.

With `CC(C)CN1CCC(N2CCC(c3cc4c(cc3F)nc(-c3ccc(S(C)(=O)=O)cc3)n4C)CC2)CC1` [Example 221, 5-fluoro-6-(1′-isobutyl-[1,4′-bipiperidin]-4-yl)-1-methyl-2-(4-(methylsulfonyl)phenyl)-1H-benzo[d]imidazole] the IC50 (human TLR8) was greater than 50000 nM, the IC50 (human TLR9) was 350 nM and the IC50 (human TLR9; [1]) was 354 nM. It also gave an IC50 (human TLR7) of 7800 nM.

With `Cn1c(-c2ccc(S(C)(=O)=O)cc2)nc2cc(F)c(C3CCN(C4CCN(C5CC5)CC4)CC3)cc21` [Example 222, 6-(1′-cyclopropyl-[1,4′-bipiperidin]-4-yl)-5-fluoro-1-methyl-2-(4-(methylsulfonyl)phenyl)-1H-benzo[d]imidazole] the IC50 (human TLR8) was greater than 50000 nM, the IC50 (human TLR9) was 130 nM and the IC50 (human TLR9; [1]) was 133 nM. For the same compound, the IC50 (human TLR7) was 35600 nM.

`Cn1c(-c2ccc(S(C)(=O)=O)cc2)nc2cc(F)c(C3CCN(C4CCN(C5CCC5)CC4)CC3)cc21` [Example 223, 6-(1′-cyclobutyl-[1,4′-bipiperidin]-4-yl)-5-fluoro-1-methyl-2-(4-(methylsulfonyl)phenyl)-1H-benzo[d]imidazole] was tested, and the IC50 (human TLR8) was greater than 50000 nM, the IC50 (human TLR9) was 290 nM and the IC50 (human TLR9; [1]) was 290 nM. For the same compound, the IC50 (human TLR7) was greater than 50000 nM.

Work on `Cn1c(-c2ccc(S(C)(=O)=O)cc2)nc2cc(F)c(C3CCN(C4CCN(CC5CC5)CC4)CC3)cc21` [Example 224, 6-(1′-(cyclopropylmethyl)-[1,4′-bipiperidin]-4-yl)-5-fluoro-1-methyl-2-(4-(methylsulfonyl)phenyl)-1H-benzo[d]imidazole] yielded an IC50 (human TLR8) greater than 50000 nM, an IC50 (human TLR9) of 190 nM and an IC50 (human TLR9; [1]) of 192 nM. For the same compound, the IC50 (human TLR7) was 25700 nM.

`Cn1c(-c2ccc(S(C)(=O)=O)cc2)nc2cc(F)c(C3CCN(C4CCN(C5COC5)CC4)CC3)cc21` [Example 225, 5-fluoro-1-methyl-2-(4-(methylsulfonyl)phenyl)-6-(1′-(oxetan-3-yl)-[1,4′-bipiperidin]-4-yl)-1H-benzo[d]imidazole] was tested, and the IC50 (human TLR8) was greater than 50000 nM, the IC50 (human TLR9) was 5400 nM and the IC50 (human TLR9; [1]) was 5350 nM. It also gave an IC50 (human TLR7) greater than 50000 nM.

Work on `Cn1c(-c2ccc(S(C)(=O)=O)cc2)nc2cc(F)c(C3CCN(C4CCN(C5CCOCC5)CC4)CC3)cc21` [Example 226, 5-fluoro-1-methyl-2-(4-(methylsulfonyl)phenyl)-6-(1′-(tetrahydro-2H-pyran-4-yl)-[1,4′-bipiperidin]-4-yl)-1H-benzo[d]imidazole] yielded an IC50 (human TLR8) greater than 50000 nM, an IC50 (human TLR9) of 900 nM and an IC50 (human TLR9; [1]) of 898 nM. The IC50 (human TLR7) was greater than 50000 nM.

For `COCCN1CCC(N2CCC(c3cc4c(cc3F)nc(-c3ccc(S(C)(=O)=O)cc3)n4C)CC2)CC1` [Example 227, 5-fluoro-6-(1′-(2-methoxyethyl)-[1,4′-bipiperidin]-4-yl)-1-methyl-2-(4-(methylsulfonyl)phenyl)-1H-benzo[d]imidazole], the IC50 (human TLR8) was greater than 50000 nM, the IC50 (human TLR9) was 410 nM and the IC50 (human TLR9; [1]) was 407 nM. For the same compound, the IC50 (human TLR7) was 27400 nM.

In the case of `Cn1c(-c2ccc(S(C)(=O)=O)cc2)nc2cc(F)c(C3CCN(C4CC5CCC(C4)N5CC4CC4)CC3)cc21` (stereo not drawn) [Example 230, 6-(1-(8-(cyclopropylmethyl)-8-azabicyclo[3.2.1]octan-3-yl)piperidin-4-yl)-5-fluoro-1-methyl-2-(4-(methylsulfonyl)phenyl)-1H-benzo[d]imidazole], the IC50 (human TLR8) is reported as greater than 50000 nM, the IC50 (human TLR9) is reported as 36 nM and the IC50 (human TLR9; [1]) is reported as 36 nM. For the same compound, the IC50 (human TLR7) was 32400 nM.

`Cn1c(-c2ccc(S(C)(=O)=O)cc2)nc2cc(F)c(C3CCN(C4CC5CCC(C4)N5CC4CC4)CC3)cc21` (stereo not drawn) [Example 231, 6-(1-(8-(cyclopropylmethyl)-8-azabicyclo[3.2.1]octan-3-yl)piperidin-4-yl)-5-fluoro-1-methyl-2-(4-(methylsulfonyl)phenyl)-1H-benzo[d]imidazole] gave an IC50 (human TLR8) greater than 50000 nM, an IC50 (human TLR9) of 58 nM and an IC50 (human TLR9; [1]) of 58 nM. The IC50 (human TLR7) was greater than 50000 nM.

Compound `Cn1c(-c2ccc(S(C)(=O)=O)cc2)nc2cc(F)c(C3CCN(C4CC5CCC(C4)N5C4CCC4)CC3)cc21` (stereo not drawn) [Example 232, 6-(1-(8-cyclobutyl-8-azabicyclo[3.2.1]octan-3-yl)piperidin-4-yl)-5-fluoro-1-methyl-2-(4-(methylsulfonyl)phenyl)-1H-benzo[d]imidazole] has an IC50 (human TLR8) greater than 50000 nM, an IC50 (human TLR9) of 45 nM and an IC50 (human TLR9; [1]) of 45 nM. For the same compound, the IC50 (human TLR7) was 22400 nM.

`Cn1c(-c2ccc(S(C)(=O)=O)cc2)nc2cc(F)c(C3CCN(C4CC5CCC(C4)N5C4CCC4)CC3)cc21` (stereo not drawn) [Example 233, 6-(1-(8-cyclobutyl-8-azabicyclo[3.2.1]octan-3-yl)piperidin-4-yl)-5-fluoro-1-methyl-2-(4-(methylsulfonyl)phenyl)-1H-benzo[d]imidazole] showed an IC50 (human TLR8) greater than 50000 nM, an IC50 (human TLR9) of 58 nM and an IC50 (human TLR9; [1]) of 58 nM. The IC50 (human TLR7) was 29000 nM.
